The record followed here is patent US10232058B2, “Prostate-specific membrane antigen-targeted photosensitizers for photodynamic therapy” (THE JOHNS HOPKINS UNIVERSITY, priority 2013, dated 2019).

This experiment has as its target PSMA (Homo sapiens, UniProt Q04609). Kind of experiment: fluorescence-based PSMA binding assay. Conditions: read-out: PSMA binding affinity Ki.

pKi: −log10 of the molar value.

Chain of PSMA (Q04609 whole entry): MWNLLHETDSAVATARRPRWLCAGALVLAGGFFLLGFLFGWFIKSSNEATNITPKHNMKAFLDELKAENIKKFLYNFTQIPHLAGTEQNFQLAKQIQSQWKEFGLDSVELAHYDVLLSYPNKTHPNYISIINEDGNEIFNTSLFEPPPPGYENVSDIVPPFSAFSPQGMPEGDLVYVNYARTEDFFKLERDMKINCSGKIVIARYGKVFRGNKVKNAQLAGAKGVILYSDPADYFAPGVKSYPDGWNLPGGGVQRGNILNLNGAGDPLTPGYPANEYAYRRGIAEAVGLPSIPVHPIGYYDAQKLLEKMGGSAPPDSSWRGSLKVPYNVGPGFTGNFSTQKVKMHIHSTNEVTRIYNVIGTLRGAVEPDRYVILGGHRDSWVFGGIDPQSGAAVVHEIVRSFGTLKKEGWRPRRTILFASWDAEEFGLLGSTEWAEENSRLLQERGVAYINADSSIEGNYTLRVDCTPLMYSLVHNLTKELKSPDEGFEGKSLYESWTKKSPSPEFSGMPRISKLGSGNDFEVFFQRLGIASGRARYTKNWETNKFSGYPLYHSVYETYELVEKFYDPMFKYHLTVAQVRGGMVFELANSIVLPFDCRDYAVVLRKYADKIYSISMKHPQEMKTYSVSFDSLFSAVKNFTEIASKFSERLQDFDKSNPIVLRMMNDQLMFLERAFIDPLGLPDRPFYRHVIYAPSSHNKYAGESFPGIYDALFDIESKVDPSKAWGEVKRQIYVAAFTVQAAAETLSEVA

Regarding `C=Cc1c(C)c2cc3nc(c4c5[nH]c(cc6nc(cc1[nH]2)C(C)=C6CC)c(C)c5C(=O)C4)[C@H](CCC(=O)NCCCCC(NC(=O)CCCCCCC(=O)NCCCC[C@H](NC(=O)N[C@@H](CCC(=O)O)C(=O)O)C(=O)O)C(=O)O)[C@H]3C` (stereo partly shown) [YC-6], the pKi is 8.92.
